Assay results reported in patent US8324390B2, “Tetrazole-substituted anthranilamides as pesticides” (Bayer CropScience AG, priority 2008, dated 2012).

What was measured:
[1] = test system: caterpillars of the armyworm (Spodoptera frugiperda); experiment: Spodoptera frugiperda test (SPODFR spray treatment); assay type: in vivo; conditions: Spodoptera frugiperda, in Zea mays, foliar, read-out: effect in % (caterpillars killed)
Excerpt: (§1) Solvent: 78.0 parts by weight of acetone

[2] = test system: larvae of the mustard beetle (Phaedon cochleariae); experiment: Phaedon test (PHAECO spray treatment); conditions: Phaedon cochleariae, in Brassica rapa, foliar, read-out: effect in % (beetle larvae killed)
[3] = test system: green peach aphid (Myzus persicae); experiment: Myzus test (MYZUPE spray treatment); assay type: in vivo; conditions: Myzus persicae, in Brassica rapa, foliar, read-out: effect in % (aphids killed)
Excerpt: Solvent: 78 parts by weight of acetone
as §1

[4] = log P determination by HPLC (EEC Directive 79/831 Annex V.A8); assay type: physicochemical; conditions: log P
Method: The measurements were carried out using an Agilent 1100 LC system with a 50*4.6 Zorbax Eclipse C18 1.8 μm column (oven temperature 55° C., flow rate 2.0 ml/min).
The following mobile phases were used:
Mobile phase A: acetonitrile+1000 μl of formic acid/l
Mobile phase B: Millipore water+900 μl of formic acid/l

Row | SMILES | pest or weed control at 100 g/ha [1] | pest or weed control at 100 g/ha [2] | pest or weed control at 100 g/ha [3] | chromatographic logP [4] | pest or weed control at 20 g/ha [3]
1 | Cc1cc(C#N)cc(C(=O)NC2CCC2)c1NC(=O)c1cc(Cn2nnc(C(F)(F)F)n2)nn1-c1ncccc1Cl [Example 24] | ≥ 80% | ≥ 80% | ≥ 80% | 3.18 | –
2 | Cc1cc(Br)cc(C(=O)NC2CC2)c1NC(=O)c1cc(Cn2nnc(C(F)(F)F)n2)nn1-c1ncccc1Cl [Example 26] | ≥ 80% | ≥ 80% | ≥ 80% | 3.3 | –
3 | Cc1cc(F)cc(C(=O)NC2CC2)c1NC(=O)c1cc(Cn2nnc(C(F)(F)F)n2)nn1-c1ncccc1Cl [Example 27] | ≥ 80% | ≥ 80% | ≥ 80% | 2.87 | –
4 | CNC(=O)c1cc(F)cc(C)c1NC(=O)c1cc(Cn2nnc(C(F)(F)F)n2)nn1-c1ncccc1Cl [Example 29] | ≥ 80% | ≥ 80% | ≥ 80% | 2.66 | –
5 | Cc1cc(Cl)cc(C(=O)NC(C)C2CC2)c1NC(=O)c1cc(Cn2nnc(C(F)(F)F)n2)nn1-c1ncccc1Cl (stereo not drawn) [Example 30] | ≥ 80% | ≥ 80% | ≥ 80% | 3.79 | –
6 | Cc1cc(Br)cc(C(=O)NC(C)C2CC2)c1NC(=O)c1cc(Cn2nnc(C(F)(F)F)n2)nn1-c1ncccc1Cl (stereo not drawn) [Example 31] | ≥ 80% | ≥ 80% | ≥ 80% | 3.89 | –
7 | Cc1cc(F)cc(C(=O)NC(C)C2CC2)c1NC(=O)c1cc(Cn2nnc(C(F)(F)F)n2)nn1-c1ncccc1Cl (stereo not drawn) [Example 32] | ≥ 80% | ≥ 80% | ≥ 80% | 3.41 | –
8 | CSC[C@H](C)NC(=O)c1cc(Cl)cc(C)c1NC(=O)c1cc(Cn2nnc(C(F)(F)F)n2)nn1-c1ncccc1Cl [Example 41] | ≥ 80% | ≥ 80% | ≥ 80% | 3.68 | –
9 | CSC[C@H](C)NC(=O)c1cc(Br)cc(C)c1NC(=O)c1cc(Cn2nnc(C(F)(F)F)n2)nn1-c1ncccc1Cl [Example 42] | ≥ 80% | ≥ 80% | ≥ 80% | 3.77 | –
10 | CSC[C@H](C)NC(=O)c1cc(F)cc(C)c1NC(=O)c1cc(Cn2nnc(C(F)(F)F)n2)nn1-c1ncccc1Cl [Example 43] | ≥ 80% | ≥ 80% | ≥ 80% | 3.31 | –
11 | Cc1cc(Br)cc(C(N)=O)c1NC(=O)c1cc(Cn2nnc(C(F)(F)F)n2)nn1-c1ncccc1Cl [Example 44] | ≥ 80% | ≥ 80% | ≥ 80% | 2.81 | –
12 | Cc1cc(F)cc(C(N)=O)c1NC(=O)c1cc(Cn2nnc(C(F)(F)F)n2)nn1-c1ncccc1Cl [Example 45] | ≥ 80% | ≥ 80% | ≥ 80% | 2.46 | –
13 | Cc1cc(Br)cc(C(=O)NCC#N)c1NC(=O)c1cc(Cn2nnc(C(F)(F)F)n2)nn1-c1ncccc1Cl [Example 52] | ≥ 80% | ≥ 80% | ≥ 80% | 3.02 | –
14 | Cc1cc(F)cc(C(=O)NCC#N)c1NC(=O)c1cc(Cn2nnc(C(F)(F)F)n2)nn1-c1ncccc1Cl [Example 53] | ≥ 80% | ≥ 80% | ≥ 80% | 2.67 | –
15 | CNC(=O)c1cc(Cl)cc(Cl)c1NC(=O)c1cc(Cn2nnc(C(F)(F)F)n2)nn1-c1ncccc1Cl [Example 54] | ≥ 80% | ≥ 80% | ≥ 80% | 2.93 | –
16 | NC(=O)c1cc(Cl)cc(Cl)c1NC(=O)c1cc(Cn2nnc(C(F)(F)F)n2)nn1-c1ncccc1Cl [Example 55] | ≥ 80% | ≥ 80% | ≥ 80% | 2.72 | –
17 | N#CCNC(=O)c1cc(Cl)cc(Cl)c1NC(=O)c1cc(Cn2nnc(C(F)(F)F)n2)nn1-c1ncccc1Cl [Example 59] | ≥ 80% | ≥ 80% | ≥ 80% | 2.92 | –
18 | CC(C)(C)NC(=O)c1cc(Cl)cc(Cl)c1NC(=O)c1cc(Cn2nnc(C(F)(F)F)n2)nn1-c1ncccc1Cl [Example 60] | ≥ 80% | ≥ 80% | ≥ 80% | 3.78 | –

Row | SMILES | pest or weed control at 100 g/ha [1] | pest or weed control at 100 g/ha [2] | pest or weed control at 100 g/ha [3] | chromatographic logP [4] | pest or weed control at 20 g/ha [3]
19 | CSC[C@H](C)NC(=O)c1cc(Cl)cc(Cl)c1NC(=O)c1cc(Cn2nnc(C(F)(F)F)n2)nn1-c1ncccc1Cl [Example 64] | ≥ 80% | ≥ 80% | ≥ 80% | 3.62 | –
20 | CNC(=O)c1cc(I)cc(C)c1NC(=O)c1cc(Cn2nnc(C(F)(F)F)n2)nn1-c1ncccc1Cl [Example 65] | ≥ 80% | ≥ 80% | ≥ 80% | 3.21 | –
21 | Cc1cc(I)cc(C(N)=O)c1NC(=O)c1cc(Cn2nnc(C(F)(F)F)n2)nn1-c1ncccc1Cl [Example 67] | ≥ 80% | ≥ 80% | ≥ 80% | 2.95 | –
22 | Cc1cc(I)cc(C(=O)NCC#N)c1NC(=O)c1cc(Cn2nnc(C(F)(F)F)n2)nn1-c1ncccc1Cl [Example 70] | ≥ 80% | ≥ 80% | ≥ 80% | 3.14 | –
23 | CSC[C@H](C)NC(=O)c1cc(I)cc(C)c1NC(=O)c1cc(Cn2nnc(C(F)(F)F)n2)nn1-c1ncccc1Cl [Example 74] | ≥ 80% | ≥ 80% | ≥ 80% | 3.9 | –
24 | Cc1cc(C#N)cc(C(=O)N[C@@H]2C[C@H]2CO)c1NC(=O)c1cc(Cn2nnc(C(F)(F)F)n2)nn1-c1ncccc1Cl [Example 76] | ≥ 80% | ≥ 80% | ≥ 80% | 2.39 | –
25 | Cc1cc(C#N)cc(C(=O)NCc2ccco2)c1NC(=O)c1cc(Cn2nnc(C(F)(F)F)n2)nn1-c1ncccc1Cl [Example 77] | ≥ 80% | ≥ 80% | ≥ 80% | 3.14 | –
26 | CNC(=O)c1cc(C)cc(C)c1NC(=O)c1cc(Cn2nnc(C(F)(F)F)n2)nn1-c1ncccc1Cl [Example 78] | ≥ 80% | ≥ 80% | ≥ 80% | 2.81 | –
27 | CSC[C@H](C)NC(=O)c1cc(C)cc(C)c1NC(=O)c1cc(Cn2nnc(C(F)(F)F)n2)nn1-c1ncccc1Cl [Example 86] | ≥ 80% | ≥ 80% | ≥ 80% | 3.5 | –
28 | Cc1cc(C#N)cc(C(=O)NC2(C)CCC2)c1NC(=O)c1cc(Cn2nnc(C(F)(F)F)n2)nn1-c1ncccc1Cl [Example 89] | ≥ 80% | ≥ 80% | ≥ 80% | 3.46 | –
29 | Cc1cc(C#N)cc(C(=O)NCC(F)F)c1NC(=O)c1cc(Cn2nnc(C(F)(F)F)n2)nn1-c1ncccc1Cl [Example 91] | ≥ 80% | ≥ 80% | ≥ 80% | 2.91 | –
30 | COCCNC(=O)c1cc(C#N)cc(C)c1NC(=O)c1cc(Cn2nnc(C(F)(F)F)n2)nn1-c1ncccc1Cl [Example 92] | ≥ 80% | ≥ 80% | ≥ 80% | 2.73 | –
31 | COC(C)(C)CNC(=O)c1cc(C#N)cc(C)c1NC(=O)c1cc(Cn2nnc(C(F)(F)F)n2)nn1-c1ncccc1Cl [Example 95] | ≥ 80% | ≥ 80% | ≥ 80% | 3.12 | –
32 | C#CCNC(=O)c1cc(C#N)cc(C)c1NC(=O)c1cc(Cn2nnc(C(F)(F)F)n2)nn1-c1ncccc1Cl [Example 96] | ≥ 80% | ≥ 80% | ≥ 80% | 2.9 | –
33 | CCC(C)NC(=O)c1cc(C#N)cc(C)c1NC(=O)c1cc(Cn2nnc(C(F)(F)F)n2)nn1-c1ncccc1Cl (stereo not drawn) [Example 97] | ≥ 80% | ≥ 80% | – | 3.32 | ≥ 80%
34 | COCC(C)NC(=O)c1cc(C#N)cc(C)c1NC(=O)c1cc(Cn2nnc(C(F)(F)F)n2)nn1-c1ncccc1Cl (stereo not drawn) [Example 98] | ≥ 80% | ≥ 80% | ≥ 80% | 2.95 | –
35 | CNC(=O)c1cc(C#N)cc(C)c1NC(=O)c1cc(Cn2nnc(C3CC3)n2)nn1-c1ncccc1Cl [Example 102] | ≥ 80% | ≥ 80% | ≥ 80% | 2.15 | –
36 | CNC(=O)c1cc(Cl)cc(C)c1NC(=O)c1cc(Cn2nnc(C3CC3)n2)nn1-c1ncccc1Cl [Example 104] | ≥ 80% | ≥ 80% | ≥ 80% | 2.52 | –
